Active and inactive are the calls of the source.
Assays:
[1] = biological target: T1, Heat shock factor protein 1 (Mus musculus, UniProt P38532); experiment: enhancement of HSF1-driven luciferase signal – cell-based, NIH3T3, luminescence, dose retest, confirmation (AID 435004); assay type: functional;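 further: stress induced by proteasome inhibitor MG132 added 30 min after compound; luciferase reporter driven by HSF1 response element in NIH3T3 cells; actives raise luminescence as potentiators of the MG132 stress response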
T1 sequence (P38532 whole entry): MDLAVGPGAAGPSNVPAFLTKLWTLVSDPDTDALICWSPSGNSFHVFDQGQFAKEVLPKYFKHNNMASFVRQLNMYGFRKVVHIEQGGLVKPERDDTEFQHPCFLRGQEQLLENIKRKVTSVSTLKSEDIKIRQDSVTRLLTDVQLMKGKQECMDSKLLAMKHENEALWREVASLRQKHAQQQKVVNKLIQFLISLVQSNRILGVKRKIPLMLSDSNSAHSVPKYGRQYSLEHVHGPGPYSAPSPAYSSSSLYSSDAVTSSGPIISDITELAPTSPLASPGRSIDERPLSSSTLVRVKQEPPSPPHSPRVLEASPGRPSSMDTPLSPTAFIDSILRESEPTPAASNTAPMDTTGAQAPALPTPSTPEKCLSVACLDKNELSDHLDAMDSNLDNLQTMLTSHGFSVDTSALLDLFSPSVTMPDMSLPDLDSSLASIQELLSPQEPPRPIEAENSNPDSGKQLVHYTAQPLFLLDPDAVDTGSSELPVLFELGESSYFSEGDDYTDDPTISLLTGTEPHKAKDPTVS

Protein skinhead-1 = biological target: T2, Protein skinhead-1 (Caenorhabditis elegans, UniProt P34707); assay type: functional
T2 sequence (P34707 whole entry): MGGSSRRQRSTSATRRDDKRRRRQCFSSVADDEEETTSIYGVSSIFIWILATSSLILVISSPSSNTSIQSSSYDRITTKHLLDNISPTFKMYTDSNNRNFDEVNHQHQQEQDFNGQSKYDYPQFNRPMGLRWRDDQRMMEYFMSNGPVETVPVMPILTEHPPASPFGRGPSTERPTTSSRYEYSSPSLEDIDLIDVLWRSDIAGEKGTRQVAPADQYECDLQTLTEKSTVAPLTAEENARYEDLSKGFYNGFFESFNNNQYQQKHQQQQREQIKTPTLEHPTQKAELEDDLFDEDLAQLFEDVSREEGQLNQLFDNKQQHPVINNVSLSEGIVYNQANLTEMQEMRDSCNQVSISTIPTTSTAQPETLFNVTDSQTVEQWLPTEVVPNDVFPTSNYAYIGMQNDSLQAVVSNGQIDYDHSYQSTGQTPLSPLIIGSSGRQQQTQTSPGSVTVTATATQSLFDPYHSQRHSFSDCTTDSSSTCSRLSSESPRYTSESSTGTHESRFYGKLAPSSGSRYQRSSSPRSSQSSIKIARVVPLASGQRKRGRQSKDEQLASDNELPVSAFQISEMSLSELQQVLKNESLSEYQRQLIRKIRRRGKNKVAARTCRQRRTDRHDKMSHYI

INS1 = experiment: INS-1E survival protection against cytokine death – cell-based, luminescence, retest, dose response (AID 449756); assay type: functional; details: Rattus norvegicus;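 further: cell death triggered by IL-1 beta plus TNF-alpha plus IFN-gamma mixture; protective hits raise ATP signal compared with cytokine alone wells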
[2] = Luminescence Cell-Based Dose Confirmation HTS to Identify Activators of 5'UTR Stem-Loop Driven Alpha-Synuclein mRNA Translation in H4 Neuroglioblastoma Cells. [Related pubchem assays: 1829 (Project Summary), 1814 (Primary HTS)]; assay type: functional
[3] = Luminescence Cell-Based Dose Response HTS to Identify Activators of Luciferase Translation or Activity in H4 […] Cells. [Related pubchem assays: 1829 (Project Summary), 1814 (Primary HTS)]; assay type: functional
[4] = biological target: T3, RNA-binding protein pos-1 (Caenorhabditis elegans, UniProt G5EF15); experiment: disruptors of C. elegans POS-1 RNA interaction – biochemical, fluorescence polarization, dose response (AID 1964);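 further: purified POS-1 fused to maltose binding protein made in E. coli; potency of compounds blocking POS-1 binding to fluorescent RNA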
T3 sequence (G5EF15 whole entry): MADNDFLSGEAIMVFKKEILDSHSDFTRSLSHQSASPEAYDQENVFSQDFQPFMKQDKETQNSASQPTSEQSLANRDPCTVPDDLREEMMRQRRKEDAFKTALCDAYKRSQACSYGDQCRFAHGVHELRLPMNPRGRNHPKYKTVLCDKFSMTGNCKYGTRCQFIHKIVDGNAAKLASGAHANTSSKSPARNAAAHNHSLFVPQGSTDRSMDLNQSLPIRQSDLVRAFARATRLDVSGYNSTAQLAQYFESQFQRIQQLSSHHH

[5] = biological target: T4, Zinc finger protein mex-5 (Caenorhabditis elegans, UniProt Q9XUB2); experiment: potency of MEX-5 RNA-binding blockers – biochemical, C. elegans, fluorescence polarization, dose response (AID 1960)
T4 sequence (Q9XUB2 whole entry): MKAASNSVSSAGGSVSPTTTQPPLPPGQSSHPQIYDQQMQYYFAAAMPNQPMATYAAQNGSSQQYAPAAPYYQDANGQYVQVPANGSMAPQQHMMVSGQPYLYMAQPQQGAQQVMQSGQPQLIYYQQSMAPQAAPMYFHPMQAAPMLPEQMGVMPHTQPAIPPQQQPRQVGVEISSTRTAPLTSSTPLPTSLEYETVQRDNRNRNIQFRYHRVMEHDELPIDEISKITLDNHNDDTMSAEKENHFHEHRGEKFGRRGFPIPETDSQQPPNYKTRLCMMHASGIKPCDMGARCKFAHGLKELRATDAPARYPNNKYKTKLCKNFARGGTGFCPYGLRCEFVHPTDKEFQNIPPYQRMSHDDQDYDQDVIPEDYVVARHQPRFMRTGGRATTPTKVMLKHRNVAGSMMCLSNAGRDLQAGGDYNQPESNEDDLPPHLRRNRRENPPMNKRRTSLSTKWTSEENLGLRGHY

[6] = P. falciparum Dd2 growth inhibitors, dose response, SYBR Green, cherry-picked samples (AID 1159567); assay type: functional, cell-based
Cytochrome P450 2C19 = Cytochrome P450 2C19 (Homo sapiens, UniProt P33261); experiment: Cytochrome panel assay with activity outcomes. Panel member name: p450-cyp2c19 Compounds with AC50 equal or less than 10 uM are considered active; assay type: functional; details: read-out: AC50
Cytochrome P450 2C9 = Cytochrome P450 2C9 (Homo sapiens, UniProt P11712)
Chain of Cytochrome P450 2C9 (P11712 whole entry): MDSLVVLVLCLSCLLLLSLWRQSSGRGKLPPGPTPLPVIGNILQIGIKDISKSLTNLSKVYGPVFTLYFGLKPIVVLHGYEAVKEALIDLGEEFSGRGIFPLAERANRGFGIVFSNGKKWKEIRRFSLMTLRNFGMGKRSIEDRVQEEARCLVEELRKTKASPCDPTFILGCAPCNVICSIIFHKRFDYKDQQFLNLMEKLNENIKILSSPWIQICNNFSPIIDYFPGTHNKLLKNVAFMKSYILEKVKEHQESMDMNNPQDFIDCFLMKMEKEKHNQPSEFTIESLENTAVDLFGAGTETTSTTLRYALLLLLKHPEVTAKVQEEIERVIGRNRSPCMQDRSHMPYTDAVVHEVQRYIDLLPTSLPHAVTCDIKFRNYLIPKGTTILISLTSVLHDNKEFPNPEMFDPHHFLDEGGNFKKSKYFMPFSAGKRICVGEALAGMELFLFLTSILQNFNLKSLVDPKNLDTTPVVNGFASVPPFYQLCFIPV

Chain of Cytochrome P450 2C19 (P33261 whole entry): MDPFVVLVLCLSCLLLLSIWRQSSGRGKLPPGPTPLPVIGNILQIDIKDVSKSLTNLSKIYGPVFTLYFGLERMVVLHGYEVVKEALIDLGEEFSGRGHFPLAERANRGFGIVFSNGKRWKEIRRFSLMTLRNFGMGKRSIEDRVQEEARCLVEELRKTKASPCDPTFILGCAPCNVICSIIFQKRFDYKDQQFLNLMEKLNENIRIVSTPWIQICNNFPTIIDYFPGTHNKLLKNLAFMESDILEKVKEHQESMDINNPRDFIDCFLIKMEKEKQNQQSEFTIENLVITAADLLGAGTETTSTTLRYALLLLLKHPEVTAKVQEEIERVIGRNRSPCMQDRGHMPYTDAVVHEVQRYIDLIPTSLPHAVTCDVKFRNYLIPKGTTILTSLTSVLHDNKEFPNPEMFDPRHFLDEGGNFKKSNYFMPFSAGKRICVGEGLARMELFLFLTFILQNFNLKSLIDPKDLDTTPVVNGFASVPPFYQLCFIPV

Cc1ccc(NC(=O)c2c(Cl)n(C)c3ccccc23)cc1
EC50 [1]: 31.5 µM (active)

O=C(c1cccnc1)C1Cc2ccccc2C1=O (stereo not drawn)
IC50 (Protein skinhead-1): > 100 µM (inactive)

CCOc1ccc(CN(C)C(=O)CNC(=O)c2ccc3ccccc3c2)cc1OC
EC50 [1]: > 260 µM (inactive)

O=C(Nc1cc(-c2ccccc2)nn1C1CCCCC1)c1ccc(Cl)cc1
AC50 (INS1): 5.2 µM (active)

CCN(CC)c1nc(C)nc2c1cnn2CCc1ccccc1
EC50 [2]: 85.2 µM (active) | EC50 [3]: 92.1 µM (active)

CCCn1nc2cc(C(=O)NCc3ccc(OC(F)(F)F)cc3)ccc2c1OCC
IC50 (Protein skinhead-1): 16.4 µM (active)

O=C(CN1C(=O)NC2(CCCCCC2)C1=O)c1ccc2c(c1)OCCO2
EC50 [2]: 4.64 µM (active) | EC50 [3]: 0.676 µM (active)

CC(C)c1cccc(C(C)C)c1OC(=O)[C@H]1OC(C(C)(C)C)=C[C@@H]1c1ccccc1
AC50 (INS1): 7.46 µM (active)

N#C/C(=C\c1cn(Cc2ccccc2)c2ccccc12)C(=O)NCc1ccco1
EC50 [1]: 35.6 µM (active)

CCC(=O)c1ccc(OCC(O)CN2CCN(S(=O)(=O)N3CCCCC3)CC2)cc1 (stereo not drawn)
IC50 (Protein skinhead-1): > 100 µM (inactive)

COc1nnc(-c2ccc(N3CCCCC3)c(NC(=O)C3CCCCC3)c2)c2ccccc12
AC50 (INS1): 6.09 µM (active)

O=C(CSc1nnc(CN2CCOCC2)n1-c1ccc(Cl)cc1)N1CCc2ccccc21
IC50 (Protein skinhead-1): > 100 µM (inactive)

CC1(OC(=O)c2cccs2)C(=O)C=C2C=C(c3ccc(C#N)cc3)OC=C2C1=O (stereo not drawn)
EC50 [4]: 93.2 µM (active) | EC50 [5]: 31.3 µM (active)

c1ccc(-c2noc(-c3cccc4ccccc34)n2)cc1
IC50 (Protein skinhead-1): 18.8 µM (active)

Cc1ccc(NC(=O)CSCc2cc(=O)n3ccsc3n2)cc1
IC50 (Protein skinhead-1): > 100 µM (inactive)

C=CCOc1ccc(C2OC34CCCCC3C(C#N)(C#N)C2(C#N)C(=N)O4)cc1 (stereo not drawn)
EC50 [4]: 12.5 µM (active) | EC50 [5]: 9.41 µM (active)

Clc1ccc(OCCCCCN2CCOCC2)cc1
IC50 (Protein skinhead-1): 53.9 µM (inactive)

COc1ccccc1-c1cnn2c(NCc3ccccc3)cc(C)nc12
EC50 [4]: > 300 µM (not active) | EC50 [5]: > 300 µM (not active)

COCC(=O)Nc1ccc2c(c1)C(=O)N(C)C[C@H](OC)[C@H](C)CN(Cc1cc(F)ccc1F)[C@H](C)CO2
AC50 [6]: 3.74 µM (active)

CCCC(=O)O/N=C(\c1ccccc1)c1ccncc1
EC50 [1]: > 260 µM (inactive)

CCNC(=O)CC1C(=O)N(c2ccc(F)cc2)C(=O)N1CCc1ccc(OC)cc1 (stereo not drawn)
AC50 (Cytochrome P450 2C19): 8.91 µM (inconclusive) | AC50 (Cytochrome P450 2C9): 0.282 µM (inconclusive)

O=C(C[C@@H]1C[C@H]2c3cc(NS(=O)(=O)c4ccc(F)cc4)ccc3O[C@H]2[C@H](CO)O1)N1CCc2ccccc2C1
AC50 [6]: 9.73 µM (active)
